Assay results reported in the kinase profiling compilation of Christmann-Franck et al. (2016).

Legend:
Assay in all cases: radiometric filter-binding kinase assay, Kinase HotSpot
Conditions in all cases: compound 0.5 µM; ATP 10 µM
[1] = biological target: LTK (human) (UniProt P29376)
[2] = biological target: RPS6KA3 KD1 KD2 (human) (UniProt P51812)
[3] = biological target: IGF1R (human) (UniProt P08069)
[4] = biological target: NEK6 (human) (UniProt Q9HC98)
[5] = biological target: GRK6 (human) (UniProt P43250)
[6] = biological target: PRKCA (human) (UniProt P17252)
[7] = biological target: STK16 (human) (UniProt O75716)
[8] = biological target: PIM3 (human) (UniProt Q86V86)
[9] = biological target: STK4 (human) (UniProt Q13043)
Sequence of STK4 (human) (Q13043 whole entry, looked up): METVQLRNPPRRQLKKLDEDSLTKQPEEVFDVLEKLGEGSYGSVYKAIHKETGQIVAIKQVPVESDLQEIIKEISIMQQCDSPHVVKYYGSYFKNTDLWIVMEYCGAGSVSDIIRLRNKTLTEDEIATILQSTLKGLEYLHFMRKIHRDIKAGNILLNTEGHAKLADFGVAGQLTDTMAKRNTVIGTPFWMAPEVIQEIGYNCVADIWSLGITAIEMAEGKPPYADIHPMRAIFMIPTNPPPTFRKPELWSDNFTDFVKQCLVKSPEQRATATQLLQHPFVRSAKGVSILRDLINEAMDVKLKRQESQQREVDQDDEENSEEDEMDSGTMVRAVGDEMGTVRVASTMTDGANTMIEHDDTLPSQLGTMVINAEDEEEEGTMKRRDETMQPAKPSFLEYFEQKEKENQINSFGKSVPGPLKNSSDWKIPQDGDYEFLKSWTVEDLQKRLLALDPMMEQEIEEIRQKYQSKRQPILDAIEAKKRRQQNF

[10] = biological target: TNK2 (human) (UniProt Q07912)
Sequence of TNK2 (human) (Q07912 whole entry, looked up): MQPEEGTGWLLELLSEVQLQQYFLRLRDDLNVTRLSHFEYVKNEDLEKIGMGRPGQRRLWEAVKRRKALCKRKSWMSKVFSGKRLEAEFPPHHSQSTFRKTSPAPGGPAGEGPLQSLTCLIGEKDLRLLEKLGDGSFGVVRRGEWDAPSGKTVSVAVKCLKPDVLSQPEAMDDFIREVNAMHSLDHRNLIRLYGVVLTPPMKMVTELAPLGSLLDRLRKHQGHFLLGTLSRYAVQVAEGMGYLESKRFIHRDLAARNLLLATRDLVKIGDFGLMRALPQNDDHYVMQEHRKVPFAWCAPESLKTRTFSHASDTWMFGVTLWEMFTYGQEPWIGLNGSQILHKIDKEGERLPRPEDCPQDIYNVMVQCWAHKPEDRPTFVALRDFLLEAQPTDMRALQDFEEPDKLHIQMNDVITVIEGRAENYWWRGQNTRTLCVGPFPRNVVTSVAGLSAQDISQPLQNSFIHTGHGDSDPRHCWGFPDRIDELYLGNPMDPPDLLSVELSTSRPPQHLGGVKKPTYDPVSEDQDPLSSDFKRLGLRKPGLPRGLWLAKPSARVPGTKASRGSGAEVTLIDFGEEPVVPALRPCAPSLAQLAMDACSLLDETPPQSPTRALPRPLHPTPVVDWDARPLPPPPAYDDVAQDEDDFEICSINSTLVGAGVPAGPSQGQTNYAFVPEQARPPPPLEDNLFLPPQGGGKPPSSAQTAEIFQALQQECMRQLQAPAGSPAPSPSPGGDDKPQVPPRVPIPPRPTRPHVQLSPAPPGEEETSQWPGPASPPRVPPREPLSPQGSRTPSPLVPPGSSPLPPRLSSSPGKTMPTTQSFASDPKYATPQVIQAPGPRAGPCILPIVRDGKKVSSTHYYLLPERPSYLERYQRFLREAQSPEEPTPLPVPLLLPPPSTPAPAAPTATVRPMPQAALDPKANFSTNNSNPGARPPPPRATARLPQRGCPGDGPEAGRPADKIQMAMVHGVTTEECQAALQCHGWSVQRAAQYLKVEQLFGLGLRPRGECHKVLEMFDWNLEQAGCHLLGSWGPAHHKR

[11] = biological target: NEK3 (human) (UniProt P51956)
[12] = biological target: PRKD3 (human) (UniProt O94806)
[13] = biological target: PKN2 (human) (UniProt Q16513)
[14] = biological target: AKT2 (human) (UniProt P31751)
[15] = system: FLT4 (human), P35916 [Q890H]
[16] = biological target: GSK3A (human) (UniProt P49840)
[17] = biological target: ULK2 (human) (UniProt Q8IYT8)
[18] = biological target: ALK (human) (UniProt Q9UM73)
[19] = biological target: CDK9 CCNT1 (human) (UniProt P50750+O60563)
[20] = biological target: MAP2K2 (human) (UniProt P36507)
[21] = biological target: MAP2K1 (human) (UniProt Q02750)
[22] = biological target: MAP3K11 (human) (UniProt Q16584)
[23] = biological target: FES (human) (UniProt P07332)
Sequence of FES (human) (P07332 whole entry, looked up): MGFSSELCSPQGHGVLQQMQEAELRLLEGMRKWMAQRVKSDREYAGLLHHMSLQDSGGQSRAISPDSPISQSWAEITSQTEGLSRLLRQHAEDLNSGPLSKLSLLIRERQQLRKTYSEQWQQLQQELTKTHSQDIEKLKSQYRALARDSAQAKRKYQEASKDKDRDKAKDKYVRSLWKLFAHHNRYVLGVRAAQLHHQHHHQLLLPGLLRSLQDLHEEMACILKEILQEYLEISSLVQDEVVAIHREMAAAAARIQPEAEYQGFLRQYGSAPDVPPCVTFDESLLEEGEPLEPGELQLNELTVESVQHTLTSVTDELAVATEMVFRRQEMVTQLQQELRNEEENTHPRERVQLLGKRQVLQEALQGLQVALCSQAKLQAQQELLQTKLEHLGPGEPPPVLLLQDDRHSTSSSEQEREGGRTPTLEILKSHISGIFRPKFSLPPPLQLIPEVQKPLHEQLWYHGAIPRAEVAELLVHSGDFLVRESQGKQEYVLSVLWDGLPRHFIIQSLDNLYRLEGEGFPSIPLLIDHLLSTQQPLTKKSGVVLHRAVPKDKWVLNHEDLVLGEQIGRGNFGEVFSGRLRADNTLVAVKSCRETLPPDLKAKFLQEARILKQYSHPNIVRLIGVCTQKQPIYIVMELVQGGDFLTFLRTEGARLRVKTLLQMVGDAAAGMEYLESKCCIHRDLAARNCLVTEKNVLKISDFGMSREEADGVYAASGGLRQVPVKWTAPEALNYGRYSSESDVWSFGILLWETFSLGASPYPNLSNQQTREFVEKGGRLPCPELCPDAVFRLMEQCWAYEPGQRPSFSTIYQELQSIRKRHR

[24] = biological target: MST1R (human) (UniProt Q04912)
[25] = biological target: TSSK1B (human) (UniProt Q9BXA7)
[26] = biological target: CSNK1G1 (human) (UniProt Q9HCP0)
Sequence of CSNK1G1 (human) (Q9HCP0 whole entry, looked up): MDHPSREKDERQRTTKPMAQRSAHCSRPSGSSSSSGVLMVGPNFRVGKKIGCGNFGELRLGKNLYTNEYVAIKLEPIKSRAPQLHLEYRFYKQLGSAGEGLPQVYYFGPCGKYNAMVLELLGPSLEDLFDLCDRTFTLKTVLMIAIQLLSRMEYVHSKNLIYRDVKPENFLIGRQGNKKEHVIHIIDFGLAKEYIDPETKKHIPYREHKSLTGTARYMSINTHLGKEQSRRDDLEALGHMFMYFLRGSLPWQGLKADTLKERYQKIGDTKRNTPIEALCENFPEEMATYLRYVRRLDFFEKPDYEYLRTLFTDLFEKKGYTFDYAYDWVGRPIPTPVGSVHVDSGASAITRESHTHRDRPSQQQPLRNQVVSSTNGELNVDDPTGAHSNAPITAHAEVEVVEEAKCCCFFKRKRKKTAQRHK

[27] = biological target: FGFR1 (human) (UniProt P11362)
[28] = biological target: STK33 (human) (UniProt Q9BYT3)
Sequence of STK33 (human) (Q9BYT3 whole entry, looked up): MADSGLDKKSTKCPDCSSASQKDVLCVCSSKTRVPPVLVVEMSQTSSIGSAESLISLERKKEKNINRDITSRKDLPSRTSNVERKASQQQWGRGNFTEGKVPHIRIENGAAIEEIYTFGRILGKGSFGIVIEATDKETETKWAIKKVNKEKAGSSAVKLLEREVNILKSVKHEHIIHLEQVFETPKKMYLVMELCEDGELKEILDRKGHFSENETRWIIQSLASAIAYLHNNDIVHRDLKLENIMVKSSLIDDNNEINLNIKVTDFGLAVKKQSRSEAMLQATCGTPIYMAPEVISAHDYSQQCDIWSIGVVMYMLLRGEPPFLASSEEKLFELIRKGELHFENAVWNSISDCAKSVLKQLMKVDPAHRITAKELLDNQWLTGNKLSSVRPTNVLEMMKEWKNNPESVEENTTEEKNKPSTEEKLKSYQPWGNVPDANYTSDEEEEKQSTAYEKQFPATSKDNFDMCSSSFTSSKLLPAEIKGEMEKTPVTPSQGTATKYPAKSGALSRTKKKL

[29] = biological target: SIK2 (human) (UniProt Q9H0K1)
[30] = biological target: VRK1 (human) (UniProt Q99986)
Sequence of VRK1 (human) (Q99986 whole entry, looked up): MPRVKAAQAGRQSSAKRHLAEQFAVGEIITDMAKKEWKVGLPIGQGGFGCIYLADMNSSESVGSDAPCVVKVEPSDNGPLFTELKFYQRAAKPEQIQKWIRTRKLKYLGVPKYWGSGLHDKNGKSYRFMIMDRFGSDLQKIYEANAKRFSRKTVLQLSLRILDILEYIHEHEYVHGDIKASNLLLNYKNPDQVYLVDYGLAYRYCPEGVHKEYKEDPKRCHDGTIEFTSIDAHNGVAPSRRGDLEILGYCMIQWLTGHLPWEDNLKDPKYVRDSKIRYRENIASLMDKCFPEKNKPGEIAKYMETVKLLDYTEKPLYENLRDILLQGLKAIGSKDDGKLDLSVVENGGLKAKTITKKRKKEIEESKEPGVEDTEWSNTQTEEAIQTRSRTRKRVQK

[31] = biological target: NTRK2 (human) (UniProt Q16620)
[32] = biological target: PIM2 (human) (UniProt Q9P1W9)
Sequence of PIM2 (human) (Q9P1W9 whole entry, looked up): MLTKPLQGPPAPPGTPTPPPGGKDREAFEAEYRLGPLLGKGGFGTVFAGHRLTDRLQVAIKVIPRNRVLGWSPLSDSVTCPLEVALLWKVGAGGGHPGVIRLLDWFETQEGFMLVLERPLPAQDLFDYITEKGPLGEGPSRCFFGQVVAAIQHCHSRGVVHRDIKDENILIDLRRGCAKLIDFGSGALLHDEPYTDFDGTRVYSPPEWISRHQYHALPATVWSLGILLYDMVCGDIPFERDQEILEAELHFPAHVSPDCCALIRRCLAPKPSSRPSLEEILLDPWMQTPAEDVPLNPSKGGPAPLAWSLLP

[33] = biological target: WEE1 (human) (UniProt P30291)
[34] = biological target: TAOK2 (human) (UniProt Q9UL54)
[35] = biological target: MAPK13 (human) (UniProt O15264)
[36] = biological target: GSG2 (human) (UniProt Q8TF76)
[37] = biological target: STK17A (human) (UniProt Q9UEE5)
[38] = biological target: RPS6KA5 KD2 (human) (UniProt O75582)
[39] = biological target: BRSK1 (human) (UniProt Q8TDC3)
[40] = biological target: CDK6 CCND1 (human) (UniProt Q00534+P24385)
Sequence of CDK6 CCND1 (human) (P24385 whole entry, looked up): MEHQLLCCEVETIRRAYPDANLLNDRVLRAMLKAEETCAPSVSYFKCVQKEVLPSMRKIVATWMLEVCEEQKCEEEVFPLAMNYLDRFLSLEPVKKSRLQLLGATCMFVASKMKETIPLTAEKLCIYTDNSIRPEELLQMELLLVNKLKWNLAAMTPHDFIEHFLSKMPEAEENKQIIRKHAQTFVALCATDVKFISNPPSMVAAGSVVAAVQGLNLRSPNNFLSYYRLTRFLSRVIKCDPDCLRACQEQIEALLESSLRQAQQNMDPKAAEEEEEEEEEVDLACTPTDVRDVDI
Sequence of CDK6 CCND1 (human) (Q00534 whole entry, looked up): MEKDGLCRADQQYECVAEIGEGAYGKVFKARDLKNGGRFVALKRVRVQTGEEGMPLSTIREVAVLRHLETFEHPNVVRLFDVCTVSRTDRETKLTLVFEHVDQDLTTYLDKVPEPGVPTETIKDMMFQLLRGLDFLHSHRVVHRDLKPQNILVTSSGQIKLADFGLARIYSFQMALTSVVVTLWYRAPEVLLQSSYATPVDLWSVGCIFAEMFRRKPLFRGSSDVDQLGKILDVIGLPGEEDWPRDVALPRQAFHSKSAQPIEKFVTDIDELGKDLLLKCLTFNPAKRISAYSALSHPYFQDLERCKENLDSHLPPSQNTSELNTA

[41] = biological target: CDK5 CDK5R1 p35 (human) (UniProt Q00535+Q15078)
[42] = biological target: STK25 (human) (UniProt O00506)

`COc1ccc2c(c1)c(C1=C(c3c[nH]c4ccccc34)C(=O)NC1=O)cn2CCCN(C)C` showed a residual activity [1] of 81.9%, a residual activity [2] of 6.55% and a residual activity [3] of 115%. It also gave a residual activity [4] of 101%, a residual activity [5] of 96.2% and a residual activity [6] of 3.14%. The residual activity [7] was 93.1%, the residual activity [8] was 5.01% and the residual activity [9] was 65.2%. It also gave a residual activity [10] of 77.9%, a residual activity [11] of 98.3% and a residual activity [12] of 91.9%. For the same molecule, the residual activity [13] was 95%, the residual activity [14] was 110% and the residual activity [15] was 23.6%. For the same molecule, the residual activity [16] was 14%, the residual activity [17] was 96.1% and the residual activity [18] was 96%. The residual activity [19] was 69.7%, the residual activity [20] was 103% and the residual activity [21] was 85%. It also gave a residual activity [22] of 75.6%, a residual activity [23] of 120% and a residual activity [24] of 91.3%. For the same molecule, the residual activity [25] was 80.3%, the residual activity [26] was 84.1% and the residual activity [27] was 59%. For the same molecule, the residual activity [28] was 56.2%, the residual activity [29] was 103% and the residual activity [30] was 76.7%. The residual activity [31] was 88.1%, the residual activity [32] was 90.5% and the residual activity [33] was 85.1%. The residual activity [34] was 80.8%, the residual activity [35] was 108% and the residual activity [36] was 93.5%. It also gave a residual activity [37] of 84%, a residual activity [38] of 61.3% and a residual activity [39] of 81.9%. The residual activity [40] was 64%, the residual activity [41] was 81.4% and the residual activity [42] was 55.7%.
`O=C1C(Cl)=C(N2C(=O)CCC2=O)C(=O)c2ccccc21` gave a residual activity [1] of 100%, a residual activity [2] of 101% and a residual activity [3] of 107%. For the same molecule, the residual activity [4] was 104%, the residual activity [5] was 98.5% and the residual activity [6] was 99.1%. The residual activity [7] was 100%, the residual activity [8] was 101% and the residual activity [9] was 89.1%. The residual activity [10] was 91.5%, the residual activity [11] was 102% and the residual activity [12] was 88.2%. The residual activity [13] was 108%, the residual activity [14] was 96.3% and the residual activity [15] was 102%. It also gave a residual activity [16] of 99.8%, a residual activity [17] of 108% and a residual activity [18] of 88.5%. It also gave a residual activity [19] of 101%, a residual activity [20] of 106% and a residual activity [21] of 76.5%. It also gave a residual activity [22] of 102%, a residual activity [23] of 97.5% and a residual activity [24] of 94.5%. The residual activity [25] was 104%, the residual activity [26] was 147% and the residual activity [27] was 99.5%. It also gave a residual activity [28] of 91.5%, a residual activity [29] of 92.8% and a residual activity [30] of 92.4%. The residual activity [31] was 104%, the residual activity [32] was 123% and the residual activity [33] was 93%. For the same molecule, the residual activity [34] was 99.2%, the residual activity [35] was 106% and the residual activity [36] was 101%. It also gave a residual activity [37] of 101%, a residual activity [38] of 101% and a residual activity [39] of 96.9%. For the same molecule, the residual activity [40] was 100%, the residual activity [41] was 93.7% and the residual activity [42] was 107%.
`CC(C)(C)c1cc(C=C(C#N)C#N)cc(Br)c1O` gave a residual activity [1] of 96.5%, a residual activity [2] of 92.2% and a residual activity [3] of 96.6%. The residual activity [4] was 111%, the residual activity [5] was 94.6% and the residual activity [6] was 81.4%. The residual activity [7] was 99.2%, the residual activity [8] was 89.1% and the residual activity [9] was 90.5%. It also gave a residual activity [10] of 93.1%, a residual activity [11] of 96.6% and a residual activity [12] of 92.7%. It also gave a residual activity [13] of 64.3%, a residual activity [14] of 97.7% and a residual activity [15] of 102%. It also gave a residual activity [16] of 104%, a residual activity [17] of 103% and a residual activity [18] of 97.9%. The residual activity [19] was 95.4%, the residual activity [20] was 85.8% and the residual activity [21] was 90.8%. For the same molecule, the residual activity [22] was 97.4%, the residual activity [23] was 105% and the residual activity [24] was 105%. For the same molecule, the residual activity [25] was 95.6%, the residual activity [26] was 106% and the residual activity [27] was 95.9%. For the same molecule, the residual activity [28] was 91.1%, the residual activity [29] was 115% and the residual activity [30] was 86.4%. For the same molecule, the residual activity [31] was 90.9%, the residual activity [32] was 115% and the residual activity [33] was 90.9%. The residual activity [34] was 96.5%, the residual activity [35] was 98.5% and the residual activity [36] was 67.2%. The residual activity [37] was 92.3%, the residual activity [38] was 108% and the residual activity [39] was 94%. The residual activity [40] was 99.1%, the residual activity [41] was 102% and the residual activity [42] was 102%.
